Here are results for 29 molecules from patent US12570671B2 (BRISTOL-MYERS SQUIBB COMPANY, priority 2020, dated 2026).

The target of one test is Ikaros (Homo sapiens, UniProt Q13422+Q96SW2). The test can be described thus: Helios Cellular Degradation Assay (Ikaros readout). Conditions: Jurkat cells, 72 h incubation, Ikaros-Alexa488 antibody staining, flow cytometry; read-out: Ikaros Jurkat IC50. In kind it is cell-based. Also noted: endogenous in cells; host or cells: Jurkat. The method, then: (§1) Jurkat cells were plated at 80,000 cells/well in 40 μL RPMI+10% FBS in a 384 well cell culture plate prior to using acoustic dispensing technology for adding compound of interest. Cell cultures were incubated for 72 h at 37° C. and 5% C02. In order to facilitate analysis, cell cultures were spun down at 200 rpm for 5 min and the supernatant was discarded. After shaking the plate to dislodge the cell pellet, cells were resuspended in 50 μL of Fixation Buffer (eBioScience FoxP3 buffer set 00-5523-00) for 60 min at room temperature. After centrifuging and discarding the supernatant, cells were permeabilized with 50 μL of Permeabilization buffer (eBioScience FoxP3 buffer set 00-5523-00) for 10 min at room temperature. Following permeabilization, cells were spun down and the supernatant was replaced with 20 μL fluorescently labelled antibodies against Helios, Ikaros and Aiolos or corresponding Isotype controls in 1× Permeabilization buffer (Ikaros-Alexa488 [Biolegend, Cat #368408, 1:50], Helios-PE [CST, Cat #29360, 1:50], Aiolos-Alexa647 [Biolegend, Cat #371106Biolegend, 1:25]) and staining reactions were incubated for 1 h at room temperature; protected from light. Subsequently, 30 μL of 1× Permeabilization buffer was added prior to centrifuging the cells and discarding the supernatant. Stained cells were resuspended in 25 μL of flow cytometry staining buffer (PBS+0.2% BSA) and analyzed using an Intellicyt Ique Plus flow cytometer.
Ikaros, sequence (Q13422 whole entry): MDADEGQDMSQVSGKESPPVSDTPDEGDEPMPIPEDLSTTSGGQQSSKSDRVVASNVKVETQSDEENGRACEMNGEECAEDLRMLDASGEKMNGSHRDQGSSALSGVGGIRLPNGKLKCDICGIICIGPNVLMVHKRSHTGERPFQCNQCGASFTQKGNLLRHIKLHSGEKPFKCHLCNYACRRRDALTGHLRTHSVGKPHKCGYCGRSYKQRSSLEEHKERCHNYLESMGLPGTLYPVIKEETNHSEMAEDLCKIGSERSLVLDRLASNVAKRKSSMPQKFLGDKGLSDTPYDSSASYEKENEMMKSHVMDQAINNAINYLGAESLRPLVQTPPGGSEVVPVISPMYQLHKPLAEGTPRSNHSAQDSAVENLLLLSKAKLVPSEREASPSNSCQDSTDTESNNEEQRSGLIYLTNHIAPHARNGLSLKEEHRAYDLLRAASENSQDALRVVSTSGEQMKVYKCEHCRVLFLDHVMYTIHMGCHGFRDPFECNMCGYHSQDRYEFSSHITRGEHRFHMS
Ikaros, sequence (Q96SW2 whole entry): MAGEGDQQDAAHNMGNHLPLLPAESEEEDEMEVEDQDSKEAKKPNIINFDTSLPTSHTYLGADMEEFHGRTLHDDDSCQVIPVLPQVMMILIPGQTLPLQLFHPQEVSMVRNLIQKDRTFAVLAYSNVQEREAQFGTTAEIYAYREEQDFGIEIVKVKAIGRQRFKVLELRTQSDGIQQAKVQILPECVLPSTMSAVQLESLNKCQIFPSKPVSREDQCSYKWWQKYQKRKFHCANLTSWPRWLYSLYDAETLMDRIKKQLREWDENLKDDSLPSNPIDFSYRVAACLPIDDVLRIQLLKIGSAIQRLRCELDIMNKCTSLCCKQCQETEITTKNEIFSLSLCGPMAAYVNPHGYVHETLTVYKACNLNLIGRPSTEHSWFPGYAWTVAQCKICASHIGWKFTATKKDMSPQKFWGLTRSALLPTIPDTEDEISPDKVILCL
Ikaros, sequence (Q16531 whole entry partner): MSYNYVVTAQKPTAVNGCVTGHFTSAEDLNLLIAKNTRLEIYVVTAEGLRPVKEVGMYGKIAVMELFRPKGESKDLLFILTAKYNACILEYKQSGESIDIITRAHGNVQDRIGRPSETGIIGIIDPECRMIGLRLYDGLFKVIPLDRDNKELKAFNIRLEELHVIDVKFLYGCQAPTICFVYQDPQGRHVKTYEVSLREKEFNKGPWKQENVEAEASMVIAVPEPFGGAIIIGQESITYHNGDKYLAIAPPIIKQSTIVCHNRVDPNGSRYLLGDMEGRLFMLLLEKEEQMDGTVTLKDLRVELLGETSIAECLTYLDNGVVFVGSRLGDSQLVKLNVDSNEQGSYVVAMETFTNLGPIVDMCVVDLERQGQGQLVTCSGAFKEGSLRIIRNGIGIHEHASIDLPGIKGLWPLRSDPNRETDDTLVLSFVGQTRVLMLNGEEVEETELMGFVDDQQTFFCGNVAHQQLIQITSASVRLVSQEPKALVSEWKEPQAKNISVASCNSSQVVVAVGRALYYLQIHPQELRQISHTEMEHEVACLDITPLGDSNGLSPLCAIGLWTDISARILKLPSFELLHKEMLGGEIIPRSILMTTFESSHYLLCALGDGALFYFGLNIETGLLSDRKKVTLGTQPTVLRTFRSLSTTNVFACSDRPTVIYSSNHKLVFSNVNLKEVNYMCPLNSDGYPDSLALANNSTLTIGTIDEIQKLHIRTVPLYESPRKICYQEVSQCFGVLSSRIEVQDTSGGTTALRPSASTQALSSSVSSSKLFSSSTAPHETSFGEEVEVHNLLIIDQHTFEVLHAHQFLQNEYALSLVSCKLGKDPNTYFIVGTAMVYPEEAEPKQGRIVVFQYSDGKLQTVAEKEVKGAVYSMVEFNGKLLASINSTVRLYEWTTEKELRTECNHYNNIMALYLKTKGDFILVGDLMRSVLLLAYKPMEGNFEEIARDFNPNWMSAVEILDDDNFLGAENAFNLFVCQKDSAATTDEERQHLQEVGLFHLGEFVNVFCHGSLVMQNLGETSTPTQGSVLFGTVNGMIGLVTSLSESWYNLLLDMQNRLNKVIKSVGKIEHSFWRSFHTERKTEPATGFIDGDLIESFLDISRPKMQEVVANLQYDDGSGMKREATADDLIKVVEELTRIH

The target of the next test is Helios (Homo sapiens, UniProt Q96SW2+Q9UKS7). The test is described as follows: Helios Cellular Degradation Assay (Helios readout). In kind it is cell-based. The note with it: Jurkat cells, 72 h incubation, Helios-PE antibody staining, flow cytometry; read-out: Helios Jurkat IC50. Also noted: endogenous in cells; host or cells: Jurkat. The method, then: as §1
Helios, sequence (Q9UKS7 whole entry): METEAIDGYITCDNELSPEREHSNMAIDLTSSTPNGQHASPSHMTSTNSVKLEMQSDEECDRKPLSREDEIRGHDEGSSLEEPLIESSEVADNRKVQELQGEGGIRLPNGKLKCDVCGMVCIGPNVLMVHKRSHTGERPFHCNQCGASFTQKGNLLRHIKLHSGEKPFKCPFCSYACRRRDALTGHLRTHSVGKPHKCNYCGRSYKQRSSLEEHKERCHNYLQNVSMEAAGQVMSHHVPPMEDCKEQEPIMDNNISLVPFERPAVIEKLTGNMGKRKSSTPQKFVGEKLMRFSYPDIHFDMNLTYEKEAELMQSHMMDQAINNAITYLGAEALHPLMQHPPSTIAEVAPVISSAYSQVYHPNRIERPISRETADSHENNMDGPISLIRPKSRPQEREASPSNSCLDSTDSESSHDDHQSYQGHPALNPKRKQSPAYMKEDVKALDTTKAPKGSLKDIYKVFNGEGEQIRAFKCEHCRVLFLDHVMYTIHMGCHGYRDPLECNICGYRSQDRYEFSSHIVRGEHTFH
Helios, sequence (Q96SW2 whole entry): as the sequence (Q96SW2 whole entry) above
Helios, sequence (Q16531 whole entry partner): as the sequence (Q16531 whole entry partner) above
Background: In flow cytometry, cells or beads pass a laser one at a time.

As to `O=C1CCC(N2Cc3cc(-c4ccc5ccccc5n4)ccc3C2=O)C(=O)N1` (stereo not drawn) [Example 1, 3-(1-Oxo-5-(quinolin-2-yl)isoindolin-2-yl)piperidine-2,6-dione], the DC50 is greater than 20000 nM at Ikaros and 34 nM on Helios.

As to `Nc1c(-c2ccc3c(c2)CN(C2CCC(=O)NC2=O)C3=O)ncc2ccccc12` (stereo not drawn) [Example 2, 3-(5-(4-Aminoisoquinolin-3-yl)-1-oxoisoindolin-2-yl)piperidine-2,6-dione], the DC50 at Ikaros is 13700 nM; on Helios it was 370 nM.

In the case of `O=C1CCC(N2Cc3cc(-c4ncnc5c4oc4ccccc45)ccc3C2=O)C(=O)N1` (stereo not drawn) [Example 3, 3-(5-{8-oxa-3,5-diazatricyclo[7.4.0.0^2,7]trideca-1(9),2,4,6,10,12-hexaen-6-yl}-1-oxo-2,3-dihydro-1H-isoindol-2-yl)piperidine-2,6-dione], the values for the DC50 at Ikaros and on Helios were greater than 20000 nM and 36 nM, respectively.

With `Nc1nc(-c2ccc3c(c2)CN(C2CCC(=O)NC2=O)C3=O)cc2ccccc12` (stereo not drawn) [Example 4, 3-[5-(1-aminoisoquinolin-3-yl)-1-oxo-2,3-dihydro-1H-isoindol-2-yl]piperidine-2,6-dione], the DC50 was greater than 20000 nM at Ikaros and 6 nM on Helios.

Consider `Nc1nc2ccccc2nc1-c1ccc2c(c1)CN(C1CCC(=O)NC1=O)C2=O` (stereo not drawn) [Example 5, 3-[5-(3-aminoquinoxalin-2-yl)-1-oxo-2,3-dihydro-1H-isoindol-2-yl]piperidine-2,6-dione], for which the DC50 on Ikaros and at Helios was greater than 20000 nM throughout.

Consider `O=C1CCC(N2Cc3cc(-c4cc5cc[nH]c5nn4)ccc3C2=O)C(=O)N1` (stereo not drawn) [Example 6, 3-(1-oxo-5-{7H-pyrrolo[2,3-c]pyridazin-3-yl}-2,3-dihydro-1H-isoindol-2-yl)piperidine-2,6-dione], for which the results for the DC50 at Ikaros and at Helios were greater than 20000 nM and 140 nM, respectively.

As for `O=C1CCC(N2Cc3cc(-c4cnc5ccccc5n4)ccc3C2=O)C(=O)N1` (stereo not drawn) [Example 7, 3-[1-oxo-5-(quinoxalin-2-yl)-2,3-dihydro-1H-isoindol-2-yl]piperidine-2,6-dione], the DC50 on Ikaros was greater than 20000 nM; on Helios it was 73 nM.

Take `Nc1cc(-c2ccc3c(c2)CN(C2CCC(=O)NC2=O)C3=O)nc2ccccc12` (stereo not drawn) [Example 8, 3-[5-(4-aminoquinolin-2-yl)-1-oxo-2,3-dihydro-1H-isoindol-2-yl]piperidine-2,6-dione]: the DC50 on Ikaros was greater than 20000 nM; on Helios, 25 nM.

On to `O=C1CCC(N2Cc3cc(-c4ncc5ccccc5n4)ccc3C2=O)C(=O)N1` (stereo not drawn) [Example 9, 3-[1-oxo-5-(quinazolin-2-yl)-2,3-dihydro-1H-isoindol-2-yl]piperidine-2,6-dione], for which the DC50 at Ikaros is greater than 20000 nM; at Helios it was 27 nM.

On to `CCC(C)Nc1nc2ccc(-c3ccc4c(c3)CN(C3CCC(=O)NC3=O)C4=O)nc2s1` (stereo not drawn) [Example 10, 3-(5-{2-[(butan-2-yl)amino]-[1,3]thiazolo[5,4-b]pyridin-5-yl}-1-oxo-2,3-dihydro-1H-isoindol-2-yl)piperidine-2,6-dione], for which the DC50 was greater than 20000 nM at Ikaros and 100 nM on Helios.

`O=C1CCC(N2Cc3cc(-c4ncc(F)c5[nH]ccc45)ccc3C2=O)C(=O)N1` (stereo not drawn) [Example 11, 3-(5-{7-fluoro-1H-pyrrolo[3,2-c]pyridin-4-yl}-1-oxo-2,3-dihydro-1H-isoindol-2-yl)piperidine-2,6-dione]: the DC50 worked out at 97 nM at Ikaros and 42 nM on Helios.

With `COc1cc(-c2ccc3c(c2)CN(C2CCC(=O)NC2=O)C3=O)nc2ccccc12` (stereo not drawn) [Example 12, 3-[5-(4-methoxyquinolin-2-yl)-1-oxo-2,3-dihydro-1H-isoindol-2-yl]piperidine-2,6-dione], the results for the DC50 at Ikaros and on Helios were greater than 20000 nM and 38 nM, respectively.

With `O=C1CCC(N2Cc3cc(-c4cc(-c5ccccc5)c5ccccc5n4)ccc3C2=O)C(=O)N1` (stereo not drawn) [Example 13, 3-[1-oxo-5-(4-phenylquinolin-2-yl)-2,3-dihydro-1H-isoindol-2-yl]piperidine-2,6-dione], the DC50 was greater than 20000 nM at Ikaros and 750 nM on Helios.

Take `O=C1CCC(N2Cc3cc(-c4cc(C(=O)NC5CC5)c5ccccc5n4)ccc3C2=O)C(=O)N1` (stereo not drawn) [Example 14, N-cyclopropyl-2-[2-(2,6-dioxopiperidin-3-yl)-1-oxo-2,3-dihydro-1H-isoindol-5-yl]quinoline-4-carboxamide]: the results for the DC50 on Ikaros and on Helios were greater than 20000 nM and 400 nM, respectively.

On to `CCN(CC)c1nc(-c2ccc3c(c2)CN(C2CCC(=O)NC2=O)C3=O)nc2ccc(Cl)cc12` (stereo not drawn) [Example 15, 3-{5-[6-chloro-4-(diethylamino)quinazolin-2-yl]-1-oxo-2,3-dihydro-1H-isoindol-2-yl}piperidine-2,6-dione], for which the DC50 on Ikaros and at Helios was greater than 20000 nM in each case.

For the molecule `COc1cc2nc(-c3ccc4c(c3)CN(C3CCC(=O)NC3=O)C4=O)nc(N)c2cc1OC` (stereo not drawn) [Example 16, 3-[5-(4-amino-6,7-dimethoxyquinazolin-2-yl)-1-oxo-2,3-dihydro-1H-isoindol-2-yl]piperidine-2,6-dione], the results for the DC50 on Ikaros and at Helios were greater than 20000 nM and 30 nM, respectively.

Regarding `COc1ccc2c(-c3ccc4c(c3)CN(C3CCC(=O)NC3=O)C4=O)nccc2c1` (stereo not drawn) [Example 17, 3-[5-(6-methoxyisoquinolin-1-yl)-1-oxo-2,3-dihydro-1H-isoindol-2-yl]piperidine-2,6-dione], the DC50 at Ikaros was determined as 96 nM; at Helios, 14 nM.

As for `O=C1CCC(N2Cc3cc(-c4cnc5cc(Cl)ccc5n4)ccc3C2=O)C(=O)N1` (stereo not drawn) [Example 18, 3-[5-(6-chloroquinoxalin-2-yl)-1-oxo-2,3-dihydro-1H-isoindol-2-yl]piperidine-2,6-dione], the DC50 is greater than 20000 nM on Ikaros and 120 nM at Helios.

`O=C1CCC(N2Cc3cc(-c4nccc5ccc(F)cc45)ccc3C2=O)C(=O)N1` (stereo not drawn) [Example 19, 3-[5-(7-fluoroisoquinolin-1-yl)-1-oxo-2,3-dihydro-1H-isoindol-2-yl]piperidine-2,6-dione]: the DC50 on Ikaros came out at 140 nM; at Helios, 30 nM.

Turning to `O=C1CCC(N2Cc3cc(-c4nccc5c(F)cccc45)ccc3C2=O)C(=O)N1` (stereo not drawn) [Example 20, 3-[5-(5-fluoroisoquinolin-1-yl)-1-oxo-2,3-dihydro-1H-isoindol-2-yl]piperidine-2,6-dione], the DC50 on Ikaros is 34 nM; at Helios, 20 nM.

Regarding `O=C1CCC(N2Cc3cc(-c4ccc5ncccc5n4)ccc3C2=O)C(=O)N1` (stereo not drawn) [Example 21, 3-[5-(1,5-naphthyridin-2-yl)-1-oxo-2,3-dihydro-1H-isoindol-2-yl]piperidine-2,6-dione], the figures for the DC50 at Ikaros and at Helios were greater than 20000 nM and 37 nM, respectively.

Consider `Nc1nc(-c2ccc3c(c2)CN(C2CCC(=O)NC2=O)C3=O)nc2ccccc12` (stereo not drawn) [Example 22, 3-[5-(4-aminoquinazolin-2-yl)-1-oxo-2,3-dihydro-1H-isoindol-2-yl]piperidine-2,6-dione], for which the DC50 at Ikaros was greater than 20000 nM; at Helios, 8 nM.

On to `CC(C)(C)Cn1ccc(=O)c2c(N)nc(-c3ccc4c(c3)CN(C3CCC(=O)NC3=O)C4=O)cc21` (stereo not drawn) [Example 46, 3-{5-[5-Amino-1-(2,2-dimethylpropyl)-4-oxo-1,4-dihydro-1,6-naphthyridin-7-yl]-1-oxo-2,3-dihydro-1H-isoindol-2-yl}piperidine-2,6-dione], for which the DC50 on Helios worked out at 3 nM.

As for `N#Cc1cc2ccccc2c(-c2ccc3c(c2)CN(C2CCC(=O)NC2=O)C3=O)n1` (stereo not drawn) [Example 59, 1-[2-(2,6-dioxopiperidin-3-yl)-1-oxo-2,3-dihydro-1H-isoindol-5-yl]isoquinoline-3-carbonitrile], on Helios, the DC50 stood at 24 nM.

For the molecule `CNc1nc(-c2ccc3c(c2)CN(C2CCC(=O)NC2=O)C3=O)cc2c1ncn2C` (stereo not drawn) [Example 61, 3-{5-[1-methyl-4-(methylamino)-1H-imidazo[4,5-c]pyridin-6-yl]-1-oxo-2,3-dihydro-1H-isoindol-2-yl}piperidine-2,6-dione], the DC50 on Helios stood at 7 nM.

As for `O=C1CCC(N2Cc3cc(-c4nc5ccccc5nc4C4CC4)ccc3C2=O)C(=O)N1` (stereo not drawn) [Example 97, 3-(5-(3-cyclopropylquinoxalin-2-yl)-1-oxoisoindolin-2-yl)piperidine-2,6-dione], the DC50 at Helios was 90 nM.

As to `CCCc1cc(-c2ccc3c(c2)CN(C2CCC(=O)NC2=O)C3=O)nc(N)c1C#N` (stereo not drawn) [Example 172, 2-amino-6-(2-(2,6-dioxopiperidin-3-yl)-1-oxoisoindolin-5-yl)-4-propylnicotinonitrile], the DC50 at Helios is 30 nM.

On to `N#Cc1c(C(F)F)cc(N)nc1-c1ccc2c(c1)CN(C1CCC(=O)NC1=O)C2=O` (stereo not drawn) [Example 174, 6-amino-4-(difluoromethyl)-2-(2-(2,6-dioxopiperidin-3-yl)-1-oxoisoindolin-5-yl) nicotinonitrile], for which the DC50 at Helios was determined as 350 nM.

As to `N#Cc1c(C(F)(F)F)cc(-c2ccc3c(c2)CN(C2CCC(=O)NC2=O)C3=O)nc1N` (stereo not drawn) [Example 177, 2-amino-6-(2-(2,6-dioxopiperidin-3-yl)-1-oxoisoindolin-5-yl)-4-(trifluoromethyl)nicotine-nitrile], the DC50 on Helios was 40 nM.
